Data as given in patent US9181253B2 (The United States of America, as represented by the …, priority 2008, dated 2015).

How the values were obtained:
[1] = target: hA3AR (Homo sapiens (Human), UniProt P0DMS8); assay: Radioligand membrane binding at hA3AR (Example 6); conditions: for Ki: CHO cells expressing hA3AR, [125I]I-AB-MECA, n = 3-5, read-out: Affinity Ki, nM A3
[2] = target: hA2AAR (Homo sapiens (Human), UniProt P29274); assay: Radioligand membrane binding at hA2AAR (Example 6); conditions: for inhibition at 10 µM: read-out: (% inhibition) A2A; for Ki: HEK293 cells expressing hA2AAR, [3H]CGS21680, n = 3-5, read-out: Affinity Ki, nM A2A; for (% inhibition) A2A: percent inhibition of radioligand binding at 10 μM
Chain of hA2AAR (P29274 whole entry): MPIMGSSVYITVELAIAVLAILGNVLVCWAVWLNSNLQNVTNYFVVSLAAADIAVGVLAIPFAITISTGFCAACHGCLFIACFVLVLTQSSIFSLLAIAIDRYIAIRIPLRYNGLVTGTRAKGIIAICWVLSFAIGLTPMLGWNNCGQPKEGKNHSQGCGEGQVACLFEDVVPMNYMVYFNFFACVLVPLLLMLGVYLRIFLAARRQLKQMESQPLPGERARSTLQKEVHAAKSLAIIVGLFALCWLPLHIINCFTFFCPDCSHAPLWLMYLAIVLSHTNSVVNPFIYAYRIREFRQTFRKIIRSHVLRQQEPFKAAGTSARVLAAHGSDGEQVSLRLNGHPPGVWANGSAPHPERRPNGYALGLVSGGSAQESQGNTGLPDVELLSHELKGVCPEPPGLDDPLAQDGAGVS
Protocol: (§1) In addition, 800 μg/mL Geneticin and 500 μg/mL hygromycin were added to the A2A media and to the A1 and A3 media, respectively. […] The concentration of protein was determined using a BCA Protein Assay Kit from Pierce Biotechnology (Rockford, Ill.).
(§2) Radioligand binding assays at A1, A2A, and A3ARs were performed according to the procedures described previously.
(§3) All of the filters were washed 3 times with Tris-HCl, pH 7.5. […] Filters for A3AR binding were counted using a PerkinElmer Cobra II γ-counter.
(§4) Binding and functional parameters were calculated using Prism 5.0 software (GraphPAD, San Diego, Calif., USA). IC50 values obtained from competition curves were converted to Ki values using the Cheng-Prusoff equation. Data were expressed as mean±standard error.

[3] = target: T1, hA1AR (Homo sapiens (Human), UniProt P30542); assay: Radioligand membrane binding at hA1AR (Example 6); conditions: for inhibition at 10 µM: read-out: (% inhibition) A1; for Ki: CHO cells expressing hA1AR, [3H]R-PIA, n = 3-5, read-out: Affinity Ki, nM A1; for (% inhibition) A1: percent inhibition of radioligand binding at 10 μM
T1 sequence (P30542 whole entry): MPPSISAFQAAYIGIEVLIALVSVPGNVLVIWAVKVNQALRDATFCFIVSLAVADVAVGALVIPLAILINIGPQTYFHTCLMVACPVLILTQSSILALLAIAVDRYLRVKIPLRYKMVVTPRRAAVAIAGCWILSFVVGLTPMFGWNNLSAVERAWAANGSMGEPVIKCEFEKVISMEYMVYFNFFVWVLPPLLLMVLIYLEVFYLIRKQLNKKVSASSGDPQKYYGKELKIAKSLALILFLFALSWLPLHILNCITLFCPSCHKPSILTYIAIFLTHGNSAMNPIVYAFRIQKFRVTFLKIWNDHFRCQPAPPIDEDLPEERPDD
Protocol: as §1, §2, §3, §4

[4] = target: T1, hA1AR; assay: A1AR functional assay, inhibition of forskolin-stimulated cyclic AMP production in AR-transfected CHO cells; type: cell-based; conditions: for % Inhibition, cyclic AMP A1: maximal efficacy at 10 μM, in comparison to effect (100%) of full agonist CPA at 10 μM, n = 3-5; for inhibition at 10 µM: CHO, read-out: % Inhibition, cyclic AMP A1

Chain of hA3AR (P0DMS8 whole entry): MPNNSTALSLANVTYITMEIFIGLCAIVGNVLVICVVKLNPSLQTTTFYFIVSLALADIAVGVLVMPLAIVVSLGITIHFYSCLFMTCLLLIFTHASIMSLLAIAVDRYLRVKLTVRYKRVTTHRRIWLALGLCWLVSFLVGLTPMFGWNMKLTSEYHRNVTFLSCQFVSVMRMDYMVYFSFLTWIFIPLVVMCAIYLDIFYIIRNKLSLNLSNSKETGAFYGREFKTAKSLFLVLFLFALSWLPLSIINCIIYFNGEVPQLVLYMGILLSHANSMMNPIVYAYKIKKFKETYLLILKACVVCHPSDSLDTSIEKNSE

Compound	Ki [1] [nM]	Ki [2] [nM]	Ki [3] [nM]	inhibition at 10 µM [4] [%]	other results
(1R,2R,3S,4R,5S)-4-(2-Chloro-6-(exo-norbornyl)-9H-purin-9-yl)bicyclo[3.1.0]hexane-2,3-diol [Compound 114]	236 ± 43	4080 ± 170	200 ± 30		% Inhibition, cyclic AMP A1 [4]: 27.8 ± 6.2%
O[C@@H]1[C@H](O)[C@@H]2C[C@@H]2[C@H]1n1cnc2c(N[C@@H](C3CCC3)C3CC3)nc(Cl)nc21 [Compound 216, (1R,2R,3S,4R,5S)-4-(2-Chloro-6-((R)-cyclopropylcyclobutylmethylamino)-9H-purin-9-yl)bicyclo[3.1.0]hexane-2,3-diol]	2930 ± 480	5470 ± 300	270 ± 60		% Inhibition, cyclic AMP A1 [4]: 33.4 ± 5.2%
Nc1nc(Cl)nc2c1ncn2[C@H]1[C@H](O)[C@H](O)[C@@H]2C[C@@H]21 [Compound 107, (1R,2R,3S,4R,5S)-4-(6-Amino-2-chloro-9H-purin-9-yl)-bicyclo[3.1.0]hexane-2,3-diol]	160 ± 42	3140 ± 450	350 ± 90	68.1 ± 4.4	
CCC(CC)Nc1nc(Cl)nc2c1ncn2[C@H]1[C@H](O)[C@H](O)[C@@H]2C[C@@H]21 [Compound 118, (1R,2R,3S,4R,5S)-4-(2-Chloro-6-(pentan-3-ylamino)-9H-purin-9-yl)bicyclo[3.1.0]hexane-2,3-diol]	52 ± 14	3700 ± 300	78.8 ± 15.6	28.6 ± 3.8	
O[C@@H]1[C@H](O)[C@@H]2C[C@@H]2[C@H]1n1cnc2c(NC3CCCCCCC3)nc(Cl)nc21 [Compound 112, (1R,2R,3S,4R,5S)-4-(2-Chloro-6-(cyclooctylamino)-9H-purin-9-yl)bicyclo[3.1.0]hexane-2,3-diol]	1530 ± 60		760 ± 110	40.1 ± 9	
CCNc1nc(Cl)nc2c1ncn2[C@H]1[C@H](O)[C@H](O)[C@@H]2C[C@@H]21 [Compound 115, (1R,2R,3S,4R,5S)-4-(2-Chloro-6-(ethylamino)-9H-purin-9-yl)bicyclo[3.1.0]hexane-2,3-diol]	6.6 ± 1.6		930 ± 110		(% inhibition) A2A [2]: (11%)
O[C@@H]1[C@H](O)[C@@H]2C[C@@H]2[C@H]1n1cnc2c(NC3CCC3)nc(Cl)nc21 [Compound 109, (1R,2R,3S,4R,5S)-4-(2-Chloro-6-(cyclobutylamino)-9H-purin-9-yl)bicyclo[3.1.0]hexane-2,3-diol]	5.9 ± 0.5	3020 ± 90	51.6 ± 12.6		
(1R,2R,3S,4R,5S)-4-(2-Chloro-6-(endo-norbornyl)-9H-purin-9-yl)bicyclo[3.1.0]hexane-2,3-diol [Compound 113]	315 ± 48	2450 ± 90	82.6 ± 15.8		% Inhibition, cyclic AMP A1 [4]: 62.1 ± 18.5%
OC[C@H]1O[C@@H](n2cnc3c(NC4CCCC4)ncnc32)[C@H](O)[C@@H]1O [Compound 235a, N^6-cyclopentyladenosine, reference compound]					% Inhibition, cyclic AMP A1 [4]: 100 ± 2.6%
O[C@@H]1[C@H](O)[C@@H]2C[C@@H]2[C@H]1n1cnc2c(NCc3ccccc3F)nc(Cl)nc21 [Compound 122, (1R,2R,3S,4R,5S)-4-(2-Chloro-6-(2-fluorobenzylamino)-9H-purin-9-yl)bicyclo[3.1.0]hexane-2,3-diol]	41.5 ± 1		4790 ± 670		
O[C@@H]1[C@H](O)[C@@H]2C[C@@H]2[C@H]1n1cnc2c(NCCCF)nc(Cl)nc21 [Compound 116, (1R,2R,3S,4R,5S)-4-(2-Chloro-6-(3-fluoropropylamino)-9H-purin-9-yl)bicyclo[3.1.0]hexane-2,3-diol]	32.4 ± 6.7		72.7 ± 28	23.2 ± 2.6	
CC(Nc1nc(Cl)nc2c1ncn2[C@H]1[C@H](O)[C@H](O)[C@@H]2C[C@@H]21)C1CC1 (stereo partly drawn) [Compound 120, (1R,2R,3S,4R,5S)-4-(2-Chloro-6-(1-cyclopropylethylamino)-9H-purin-9-yl)bicyclo[3.1.0]hexane-2,3-diol]	110 ± 17		86.8 ± 23.7		(% inhibition) A2A [2]: (41%)
O[C@@H]1[C@H](O)[C@@H]2C[C@@H]2[C@H]1n1cnc2c(NC3CCCCC3)nc(Cl)nc21 [Compound 110, (1R,2R,3S,4R,5S)-4-(2-Chloro-6-(cyclohexylamino)-9H-purin-9-yl)bicyclo[3.1.0]hexane-2,3-diol]	500 ± 120	2720 ± 450	140 ± 10	38 ± 17.6	
O[C@@H]1[C@H](O)[C@@H]2C[C@@H]2[C@H]1n1cnc2c(NC(C3CCCC3)C3CCCC3)nc(Cl)nc21 [Compound 211, (1R,2R,3S,4R,55)-4-(2-Chloro-6-(dicyclopentylmethylamino)-9H-purin-9-yl)bicyclo[3.1.0]hexane-2,3-diol]					(% inhibition) A3 ([1]; percent inhibition of radioligand binding at 10 μM): (48 ± 2%); (% inhibition) A2A [2]: (13 ± 3%); (% inhibition) A1 [3]: (34 ± 3%)
O[C@@H]1[C@H](O)[C@@H]2C[C@@H]2[C@H]1n1cnc2c(N[C@H](c3ccccc3)C3CC3)nc(Cl)nc21 [Compound 221, (1R,2R,3S,4R,5S)-4-(2-Chloro-6-((S)-cyclopropylphenylmethylamino)-9H-purin-9-yl)bicyclo[3.1.0]hexane-2,3-diol]					% Inhibition, cyclic AMP A1 [4]: −2.4 ± 3.7%; (% inhibition) A2A [2]: (36 ± 4%); (% inhibition) A1 [3]: (50 ± 5%)

Continued, in another order:

Ki [1] [nM]	Ki [2] [nM]	Ki [3] [nM]	inhibition at 10 µM [4] [%]	Compound	other results
15.2 ± 3				O[C@@H]1[C@H](O)[C@@H]2C[C@@H]2[C@H]1n1cnc2c(NCc3cccc(OCCF)c3)nc(Cl)nc21 [Compound 124, (1R,2R,3S,4R,5S)-4-(2-chloro-6-(3-(2-fluoroethoxy)benzylamino)-9H-purin-9-yl)bicyclo[3.1.0]hexane-2,3-diol]	inhibition at 10 µM [2]: 32%; inhibition at 10 µM [3]: 34%
83.2 ± 35.7				COc1cc(F)c(F)cc1CNc1nc(Cl)nc2c1ncn2[C@H]1[C@H](O)[C@H](O)[C@@H]2C[C@@H]21 [Compound 127, (1R,2R,3S,4R,5S)-4-(2-chloro-6-(4,5-difluoro-2-methoxybenzylamino)-9H-purin-9-yl)bicyclo[3.1.0]hexane-2,3-diol]	inhibition at 10 µM [2]: 30%; inhibition at 10 µM [3]: 41%
780 ± 80	1570 ± 180	76 ± 8	33.8 ± 2.3	CC(C)[C@@H](Nc1nc(Cl)nc2c1ncn2[C@H]1[C@H](O)[C@H](O)[C@@H]2C[C@@H]21)C1CC1 [Compound 214, (1R,2R,3S,4R,5S)-4-(2-Chloro-6-((R)-1-cyclopropyl-2-methyl-propylamino)-9H-purin-9-yl)bicyclo[3.1.0]hexane-2,3-diol]	
		3000 ± 440		O[C@@H]1[C@H](O)[C@@H]2C[C@@H]2[C@H]1n1cnc2c(N[C@@H](c3ccccc3)C3CC3)nc(Cl)nc21 [Compound 220, (1R,2R,3S,4R,5S)-4-(2-Chloro-6-((R)-cyclopropylphenylmethylamino)-9H-purin-9-yl)bicyclo[3.1.0]hexane-2,3-diol]	% Inhibition, cyclic AMP A1 [4]: −7.4 ± 6.0%; (% inhibition) A2A [2]: (46 ± 4%)
40.4 ± 13.1	7510 ± 690	1910 ± 310		OCc1cc(F)c(F)cc1CNc1nc(Cl)nc2c1ncn2[C@@]12C[C@H](O)[C@H](O)[C@@H]1C2 [Compound 128]	
1760 ± 210	4840 ± 400	490 ± 90	18.4 ± 2.1	O[C@@H]1[C@H](O)[C@@H]2C[C@@H]2[C@H]1n1cnc2c(N[C@H](CC3CC3)C3CC3)nc(Cl)nc21 [Compound 218, (1R,2R,3S,4R,5S)-4-(2-Chloro-6-((R)-1,2-dicyclopropylethylamino)-9H-purin-9-yl)bicyclo[3.1.0]hexane-2,3-diol]	
16.5 ± 2.8		1260 ± 240		COc1ccc(F)c(F)c1CNc1nc(Cl)nc2c1ncn2[C@H]1[C@H](O)[C@H](O)[C@@H]2C[C@@H]21 [Compound 126, (1R,2R,3S,4R,5S)-4-(2-chloro-6-(2,3-difluoro-6-methoxybenzylamino)-9H-purin-9-yl)bicyclo[3.1.0]hexane-2,3-diol]	inhibition at 10 µM [2]: 38%
670 ± 10		780 ± 100	-9 ± 4.1	O[C@@H]1[C@H](O)[C@@H]2C[C@@H]2[C@H]1n1cnc2c(NCC(C3CC3)C3CC3)nc(Cl)nc21 [Compound 207, (1R,2R,3S,4R,5S)-4-(2-Chloro-6-(2,2-dicyclopropylethylamino)-9H-purin-9-yl)bicyclo[3.1.0]hexane-2,3-diol]	
114 ± 45		3580 ± 220		O[C@@H]1[C@H](O)[C@@H]2C[C@@H]2[C@H]1n1cnc2c(NCc3cc(F)ccc3F)nc(Cl)nc21 [Compound 125, (1R,2R,3S,4R,5S)-4-(2-chloro-6-(2,5-difluorobenzylamino)-9H-purin-9-yl)bicyclo[3.1.0]hexane-2,3-diol]	inhibition at 10 µM [2]: 46%
10.3 ± 1.5				O[C@@H]1[C@H](O)[C@@H]2C[C@@H]2[C@H]1n1cnc2c(NCc3ccccc3OCCF)nc(Cl)nc21 [Compound 123, (1R,2R,3S,4R,5S)-4-(2-chloro-6-(2-(2-fluoroethoxy)benzylamino)-9H-purin-9-yl)bicyclo[3.1.0]hexane-2,3-diol]	
